Each molecule was assayed against T1, TLR7/NFKb HEK cells (Homo sapiens, UniProt Q9NYK1) (assay: HEK Cell Assay (TLR7/NFKb reporter, Steady-Glo luciferase readout)). Conditions: 30 min compound preincubation, then R*48 agonist for 5 hours, read-out: Potency.
T1 construct: expressed in transfected cells; host or cells: HEK cells (TLR7/NFKb reporter line)
T1 sequence (Q9NYK1 27-1049): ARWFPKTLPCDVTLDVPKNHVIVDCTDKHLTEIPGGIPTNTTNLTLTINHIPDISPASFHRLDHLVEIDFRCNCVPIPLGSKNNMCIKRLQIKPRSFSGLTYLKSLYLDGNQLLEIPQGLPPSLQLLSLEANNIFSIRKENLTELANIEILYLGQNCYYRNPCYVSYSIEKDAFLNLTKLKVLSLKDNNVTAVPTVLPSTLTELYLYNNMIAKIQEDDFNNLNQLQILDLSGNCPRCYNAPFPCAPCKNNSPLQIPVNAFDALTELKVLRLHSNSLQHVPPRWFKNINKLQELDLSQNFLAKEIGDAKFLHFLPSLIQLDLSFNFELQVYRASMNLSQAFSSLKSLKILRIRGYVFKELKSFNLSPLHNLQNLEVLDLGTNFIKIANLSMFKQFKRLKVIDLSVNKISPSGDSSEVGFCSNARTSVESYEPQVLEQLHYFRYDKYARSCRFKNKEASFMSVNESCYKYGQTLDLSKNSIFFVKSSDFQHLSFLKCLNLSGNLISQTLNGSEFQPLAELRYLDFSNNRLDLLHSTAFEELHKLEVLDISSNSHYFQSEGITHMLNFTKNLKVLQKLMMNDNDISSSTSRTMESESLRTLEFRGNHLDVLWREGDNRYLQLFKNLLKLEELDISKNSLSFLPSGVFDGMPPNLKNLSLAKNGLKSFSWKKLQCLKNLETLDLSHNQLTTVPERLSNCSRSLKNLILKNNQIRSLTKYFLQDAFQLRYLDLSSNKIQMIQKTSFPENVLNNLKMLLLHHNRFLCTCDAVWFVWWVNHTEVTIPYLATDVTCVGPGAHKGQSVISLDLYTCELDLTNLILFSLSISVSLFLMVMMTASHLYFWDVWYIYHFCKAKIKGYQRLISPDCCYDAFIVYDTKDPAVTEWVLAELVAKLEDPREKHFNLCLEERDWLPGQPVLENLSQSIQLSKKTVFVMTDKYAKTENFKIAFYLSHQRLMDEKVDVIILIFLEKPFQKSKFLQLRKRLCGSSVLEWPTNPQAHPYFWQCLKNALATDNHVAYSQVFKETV
Type: cell-based
Summary of the method: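 Steady-Glo luminescence after 5 h stimulation with R*48 agonist, following 30 min compound preincubation. Assay run in HEK cells carrying a TLR7/NFKb luciferase reporter, plated at 5000 cells/well and grown 24 h at 37° C (10% CO2) before treatment.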
Molecule `CCC(C)C(=O)N[C@@H]1C[C@H](C)CN(c2ccc(C#N)c3nccnc23)C1` (single isomer, unassigned) [Compound 155] has an IC50 of 1000 to 10000 nM.
With `CCC(C)C(=O)N[C@@H]1C[C@H](C)CN(c2ccnc3nccnc23)C1` (single isomer, unassigned) [Compound 156] the IC50 was greater than 10000 nM.
`CCC(C)C(=O)N[C@@H]1C[C@H](C)CN(c2ccnc3nccnc23)C1` (single isomer, unassigned) [Compound 157] was tested, and the IC50 was greater than 10000 nM.
Molecule `COC(C)C(=O)N[C@@H]1C[C@H](C)CN(c2ccc(C#N)c3nccnc23)C1` (single isomer, unassigned) [Compound 158] has an IC50 of 1000 to 10000 nM.
In the case of `COC(C)C(=O)N[C@@H]1C[C@H](C)CN(c2ccc(C#N)c3nccnc23)C1` (single isomer, unassigned) [Compound 159], the IC50 is reported as 1000 to 10000 nM.
`COC(C)C(=O)N[C@@H]1C[C@H](C)CN(c2ccnc3nccnc23)C1` (single isomer, unassigned) [Compound 160] showed an IC50 greater than 10000 nM.
Work on `COC(C)C(=O)N[C@@H]1C[C@H](C)CN(c2ccnc3nccnc23)C1` (single isomer, unassigned) [Compound 161] yielded an IC50 greater than 10000 nM.
Work on `CC(C)[C@H](O)C(=O)NC1CC(C2CC2)CN(c2ccc(C#N)c3nccnc23)C1` (single isomer, unassigned) [Compound 173] yielded an IC50 of 1000 to 10000 nM.
For `CC(C)[C@H](O)C(=O)NC1CC(C2CC2)CN(c2ccc(C#N)c3nccnc23)C1` (single isomer, unassigned) [Compound 174], the IC50 was greater than 10000 nM.
Molecule `N#Cc1ccc(N2CC(NC(=O)C(N)C(F)(F)F)CC(C3CC3)C2)c2nccnc12` (single isomer, unassigned) [Compound 177] has an IC50 of 1000 to 10000 nM.
Work on `N#Cc1ccc(N2CC(NC(=O)C(N)C(F)(F)F)CC(C3CC3)C2)c2nccnc12` (single isomer, unassigned) [Compound 178] yielded an IC50 of 1000 to 10000 nM.
For `C[C@H]1C[C@@H](NC(=O)C(N)C(F)(F)F)CN(c2ccc(C(N)=O)c3ncccc23)C1` (single isomer, unassigned) [Compound 184], the IC50 was greater than 10000 nM.
`C[C@H]1C[C@@H](NC(=O)C(N)C(F)(F)F)CN(c2ccc(C(N)=O)c3ncccc23)C1` (single isomer, unassigned) [Compound 185] was tested, and the IC50 was greater than 10000 nM.
For `COc1ccc(N2C[C@@H](C)C[C@@H](NC(=O)C(N)C(F)(F)F)C2)c2cccnc12` (single isomer, unassigned) [Compound 191], the IC50 was 1000 to 10000 nM.
`COc1ccc(N2C[C@@H](C)C[C@@H](NC(=O)C(N)C(F)(F)F)C2)c2cccnc12` (single isomer, unassigned) [Compound 192] showed an IC50 of 1000 to 10000 nM.
`C[C@H]1C[C@@H](NC(=O)C(N)C(F)(F)F)CN(c2ccc(C(F)(F)F)c3ncccc23)C1` (single isomer, unassigned) [Compound 197] showed an IC50 of 1000 to 10000 nM.
Molecule `C[C@H]1C[C@@H](NC(=O)C(N)C(F)(F)F)CN(c2ccc(C(F)(F)F)c3ncccc23)C1` (single isomer, unassigned) [Compound 198] has an IC50 of less than 1000 nM.
Molecule `C[C@H]1C[C@@H](NC(=O)C(N)C(F)(F)F)CN(c2ccc(C(F)F)c3ncccc23)C1` (single isomer, unassigned) [Compound 207] has an IC50 of 1000 to 10000 nM.
`C[C@H]1C[C@@H](NC(=O)C(N)C(F)(F)F)CN(c2ccc(C(F)F)c3ncccc23)C1` (single isomer, unassigned) [Compound 208] was tested, and the IC50 was less than 1000 nM.
`CC1(C)C[C@@H](NC(=O)C(N)C(F)(F)F)CN(c2ccc(C#N)c3nccnc23)C1` (single isomer, unassigned) [Compound 211] was tested, and the IC50 was 1000 to 10000 nM.
Molecule `CC1(C)C[C@@H](NC(=O)C(N)C(F)(F)F)CN(c2ccc(C#N)c3nccnc23)C1` (single isomer, unassigned) [Compound 212] has an IC50 of 1000 to 10000 nM.
With `CN1CCC(NC2CC(C(F)(F)F)CN(c3ccc(C#N)c4nccnc34)C2)C1=O` (single isomer, unassigned) [Compound 224] the IC50 was 1000 to 10000 nM.
Work on `CN1CCC(NC2CC(C(F)(F)F)CN(c3ccc(C#N)c4nccnc34)C2)C1=O` (single isomer, unassigned) [Compound 225] yielded an IC50 of 1000 to 10000 nM.
In the case of `CN1CCC(NC2CC(C(F)(F)F)CN(c3ccc(C#N)c4nccnc34)C2)C1=O` (single isomer, unassigned) [Compound 226], the IC50 is reported as less than 1000 nM.
`CN1CCC(NC2CC(C(F)(F)F)CN(c3ccc(C#N)c4nccnc34)C2)C1=O` (single isomer, unassigned) [Compound 227] showed an IC50 of 1000 to 10000 nM.
`C[C@H]1C[C@@H](NC2CCN(C)C2=O)CN(c2ccc(C(F)(F)F)c3ncccc23)C1` (single isomer, unassigned) [Compound 237] was tested, and the IC50 was less than 1000 nM.
For `C[C@H]1C[C@@H](NC2CCN(C)C2=O)CN(c2ccc(C(F)(F)F)c3ncccc23)C1` (single isomer, unassigned) [Compound 238], the IC50 was less than 1000 nM.
`C[C@H]1C[C@@H](NC2CCN(C)C2=O)CN(c2ccc(Cl)c3ncccc23)C1` (single isomer, unassigned) [Compound 260] gave an IC50 of less than 1000 nM.
Molecule `C[C@H]1C[C@@H](NC2CCN(C)C2=O)CN(c2ccc(Cl)c3ncccc23)C1` (single isomer, unassigned) [Compound 261] has an IC50 of less than 1000 nM.
For `CC1CC(N)CN(c2ccc(F)c3nccnc23)C1` (single isomer, unassigned) [Compound 339], the IC50 was less than 1000 nM.
`CC1CC(N)CN(c2ccc(F)c3nccnc23)C1` (single isomer, unassigned) [Compound 340] showed an IC50 of 1000 to 10000 nM.
`C[C@H]1C[C@@H](NC(=O)C(N)C(F)(F)F)CN(c2c(F)cc(C#N)c3nccnc23)C1` (single isomer, unassigned) [Compound 345] was tested, and the IC50 was greater than 10000 nM.
In the case of `C[C@H]1C[C@@H](NC(=O)C(N)C(F)(F)F)CN(c2c(F)cc(C#N)c3nccnc23)C1` (single isomer, unassigned) [Compound 346], the IC50 is reported as greater than 10000 nM.
`C[C@H]1C[C@@H](NC2CCN(C)C2=O)CN(c2ccc(C(F)(F)F)c3nccnc23)C1` (single isomer, unassigned) [Compound 352] showed an IC50 of less than 1000 nM.
For `C[C@H]1C[C@@H](NC2CCN(C)C2=O)CN(c2ccc(C(F)(F)F)c3nccnc23)C1` (single isomer, unassigned) [Compound 353], the IC50 was less than 1000 nM.
In the case of `C[C@H]1C[C@@H](NC(=O)CC2C3CC2CN(C)C3)CN(c2ccc(C#N)c3nccnc23)C1` (single isomer, unassigned) [Compound 357], the IC50 is reported as less than 1000 nM.
Molecule `C[C@H]1C[C@@H](NC(=O)CC2C3CC2CN(C)C3)CN(c2ccc(C#N)c3nccnc23)C1` (single isomer, unassigned) [Compound 358] has an IC50 of less than 1000 nM.
`CC(C(=O)N[C@@H]1C[C@H](C)CN(c2ccc(C(F)(F)F)c3nccnc23)C1)N1CC(N)C1` (single isomer, unassigned) [Compound 369] was tested, and the IC50 was less than 1000 nM.
`CC(C(=O)N[C@@H]1C[C@H](C)CN(c2ccc(C(F)(F)F)c3nccnc23)C1)N1CC(N)C1` (single isomer, unassigned) [Compound 370] showed an IC50 of less than 1000 nM.
In the case of `CC(C(=O)N[C@@H]1C[C@H](C)CN(c2ccc(C(F)(F)F)c3nccnc23)C1)N1CCC(O)CC1` (single isomer, unassigned) [Compound 371], the IC50 is reported as less than 1000 nM.
`CC(C(=O)N[C@@H]1C[C@H](C)CN(c2ccc(C(F)(F)F)c3nccnc23)C1)N1CCC(O)CC1` (single isomer, unassigned) [Compound 372] was tested, and the IC50 was less than 1000 nM.
Molecule `CC(C)[C@H](O)C(=O)NC1CC(C(F)(F)F)CN(c2ccc(C#N)c3ncccc23)C1` (single isomer, unassigned) [Compound 429] has an IC50 greater than 10000 nM.

From patent publication US10947213B1 (Merck Patent GmbH, priority 2015, dated 2021)
